Results: patent US11453841B2, “Functionalized branched alcohols as non-ionic sugar surfactants” (ExxonMobil Technology and Engineering Company, priority 2019, dated 2022)

Assay: Surface tension isotherms
Type: physicochemical
Details: 22° C.
Procedure: Surface tension isotherms were measured for selected functionalized branched alcohols EXXAL™ 11-Glucose-3(EO )Linker (also referred to herein as “EXXAL™ 11-EO3-Glucoside”) and EXXAL™ 11-Galactose-3(EO)Linker, as well as comparative alkoxylated alcohol glycoside n-undecanol-glucose-3(EO)Linker (also referred to herein as “Undecanol-EO3-Glucoside”). The names, chemical structures, and weight average molecular weights of these functionalized branched alcohols are as follows:
Tables 7, 8 and 9 immediately below provide surface tension isotherms for the compounds 1, 2, and 3 measured at 22° C. Specifically, Table 7 provides surface tension data of n-undecanol-glucose-3(EO)Linker, Table 8 provides surface tension data of EXXAL™ 11-Gluscose-3(EO)Linker, and Table 9 provides surface tension data of EXXAL™ 11-Galactose-3(EO)Linker.

With CCCCCCCCCCCOCCOCCOCCOC1OC(CO)C(O)C(O)C1O (stereo not drawn) [Compound 1, n-undecanol-glucose-3(EO)Linker] the “Surface Tension (γ)” value (Molarity 0.000125058 mol/L) was 41.0 mN/m, the “Surface Tension (γ)” value (Molarity 0.000339945 mol/L) was 34.5 mN/m and the “Surface Tension (γ)” value (Molarity 0.000924077 mol/L) was 33.2 mN/m. The “Surface Tension (γ)” value (Molarity 0.001928806 mol/L) was 33.1 mN/m, the “Surface Tension (γ)” value (Molarity 1.69248E−05 mol/L) was 55.6 mN/m and the “Surface Tension (γ)” value (Molarity 2.29052E−06 mol/L) was 66.4 mN/m. The “Surface Tension (γ)” value (Molarity 4.60064E−05 mol/L) was 48.6 mN/m, the “Surface Tension (γ)” value (Molarity 6.22628E−06 mol/L) was 61.5 mN/m and the “Surface Tension (γ)” value (Molarity 8.42635E−07 mol/L) was 70.2 mN/m.
